This is an account of results in patent US9850283B2, “Macrocyclic inhibitors of the PD-1/PD-L1 and CD80(B7-1)/PD-L1 protein/protein interactions” (BRISTOL-MYERS SQUIBB COMPANY, priority 2013, dated 2017).

Where two headings read alike, the source gives them in different places. Positions of bridges follow the written chain, without caps; N, C: chain ends. Non-standard residues stand in square brackets, D forms with d. Residues, ends and D or L forms follow the SMILES beside them. ξ: configuration not given here. ξTrp(5-F) = NC(Cc1c[nH]c2ccc(F)cc12)C(=O)O; Phe(4-F) = N[C@@H](Cc1ccc(F)cc1)C(=O)O; Bta = N[C@@H](Cc1csc2ccccc12)C(=O)O; Hyp = O=C(O)[C@@H]1C[C@@H](O)CN1; NMeF = CN[C@@H](Cc1ccccc1)C(=O)O; 3Pal = N[C@@H](Cc1cccnc1)C(=O)O; NMeNle = CCCC[C@H](NC)C(=O)O; dPip = O=C(O)[C@H]1CCCCN1; NMeA = CN[C@@H](C)C(=O)O; Orn = NCCC[C@H](N)C(=O)O; Dab = NCC[C@H](N)C(=O)O; Dap = NC[C@H](N)C(=O)O; Sar = CNCC(=O)O Some results are limits rather than exact numbers.

Assay [1] deals with T1, Human PD-L1/PD-1 (Homo sapiens, UniProt Q9NZQ7).
T1 construct: made in house; host or cells: HEK293T
T1 sequence (Q9NZQ7 with tags, fused parts or gaps): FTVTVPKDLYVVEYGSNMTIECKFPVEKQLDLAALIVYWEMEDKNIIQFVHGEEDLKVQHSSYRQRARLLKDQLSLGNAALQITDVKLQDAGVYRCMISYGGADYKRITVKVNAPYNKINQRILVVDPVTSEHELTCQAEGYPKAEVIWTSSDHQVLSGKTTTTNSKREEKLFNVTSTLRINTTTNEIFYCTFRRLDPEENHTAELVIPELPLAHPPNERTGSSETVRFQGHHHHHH
Put plainly: HTRF PD-1-Ig/PD-L1-His binding assay (human PD-L1). The conditions noted are these: cluster symbol; read-out: HTRF IC50 cluster. A digest of the protocol:
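The time-resolved fluorescence signal comes from Eu-cryptate anti-Ig (1 nM) and APC anti-His (20 nM) antibodies bound to a PD-1-Ig/PD-L1-His complex. Both partners lack transmembrane regions.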

Assay [2] concerns the target T2, LK35.2-hPD-L1 cells / PE-labeled PD-1-Ig (Homo sapiens, UniProt Q9NZQ7).
T2 construct: expressed in transfected cells; host or cells: LK35.2 mouse B cell line
Put plainly: LK35.2-hPD-L1 cell binding high-content screening assay. The class given is cell-based. The conditions noted are these: cluster symbol, read-out: CBA IC50 cluster. A digest of the protocol: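 Readout: high-content imaging of PE-PD-1-Ig bound to LK35.2-hPD-L1 cells. Cells plated overnight (RPMI/10% FCS); compound + 1 nM PE-PD-1-Ig, 1 h, 37 °C; 3× dPBS wash before imaging.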

[3] abbreviates: cell line of CBA not given (LK35.2-hPD-L1 or 293T-hPD-L1).
[4] abbreviates: cell binding assay, cell line not given.

T2 sequence (Q9NZQ7 19-290): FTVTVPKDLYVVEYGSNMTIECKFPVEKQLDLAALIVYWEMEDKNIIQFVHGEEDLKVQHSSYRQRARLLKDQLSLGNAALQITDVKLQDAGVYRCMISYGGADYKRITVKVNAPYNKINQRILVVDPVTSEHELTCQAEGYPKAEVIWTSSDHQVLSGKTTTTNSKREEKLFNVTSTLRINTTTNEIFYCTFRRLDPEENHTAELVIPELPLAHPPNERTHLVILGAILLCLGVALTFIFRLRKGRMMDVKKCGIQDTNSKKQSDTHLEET

`CCCC[C@H]1C(=O)N(C)[C@@H](CCCC)C(=O)N[C@@H](CCCNC(=N)N)C(=O)N[C@H](C(=O)NCC(N)=O)CSCC(=O)N[C@@H](Cc2ccccc2)C(=O)N(C)[C@@H](C)C(=O)N[C@@H](CC(N)=O)C(=O)N2CCC[C@H]2C(=O)N[C@@H](Cc2cnc[nH]2)C(=O)N[C@@H](CC(C)C)C(=O)N(C)CC(=O)N[C@@H](Cc2c[nH]c3ccccc23)C(=O)N[C@@H](CO)C(=O)NC(Cc2c[nH]c3ccc(F)cc23)C(=O)N1C` (stereo partly shown) [Example 1039] ({CH2CO}-F[NMeA]NPHL[Sar]WS[ξTrp(5-F)][NMeNle][NMeNle]RCG-NH2; thioether N-14): the IC50 in assay [1] is > 30.5 nM; in assay [2] (setting [3]), 4.78 to 72.9 nM.
For the molecule `CCCC[C@H]1C(=O)N(C)[C@@H](CCCC)C(=O)N[C@@H](CO)C(=O)N[C@H](C(=O)NCC(N)=O)CSCC(=O)N[C@@H](Cc2ccc(O)cc2)C(=O)N(C)[C@@H](C)C(=O)N[C@@H](CC(N)=O)C(=O)N2CCC[C@H]2C(=O)N[C@@H](CO)C(=O)N[C@@H](CCC(N)=O)C(=O)N2C[C@H](O)C[C@H]2C(=O)N[C@@H](Cc2c[nH]c3ccccc23)C(=O)N[C@@H](CO)C(=O)N[C@@H](Cc2c[nH]c3ccccc23)C(=O)N1C` [Example 5128] ({CH2CO}-Y[NMeA]NPSQ[Hyp]WSW[NMeNle][NMeNle]SCG-NH2; thioether N-14), the values for the IC50 in assay [1] and in assay [2] (setting [4]) were 0.385 to 6.74 nM and 0.158 to 4.71 nM, respectively.
Regarding `CCCC[C@H]1C(=O)N(C)CC(=O)N[C@@H](CC(=O)O)C(=O)N[C@@H](C(C)C)C(=O)N(C)[C@@H](Cc2ccccc2)C(=O)N[C@@H](Cc2ccc(O)cc2)C(=O)N2CCCC[C@@H]2C(=O)N[C@@H](Cc2c[nH]c3ccccc23)C(=O)N[C@@H](Cc2ccc(O)cc2)C(=O)N[C@@H](CC(C)C)C(=O)N[C@H](C(=O)NCC(N)=O)CSCC(=O)N[C@@H](Cc2ccccc2)C(=O)N(C)[C@@H](Cc2ccccc2)C(=O)N1C` [Example 3572] ({CH2CO}-F[NMeF][NMeNle][Sar]DV[NMeF]Y[dPip]WYLCG-NH2; thioether N-13), the IC50 in assay [1] lay in the range of 0.385 to 6.74 nM; in assay [2] (setting [4]), 0.158 to 4.71 nM.
Taken in the same sequence, the figures for `CCCC[C@H]1C(=O)N(C)CC(=O)N[C@@H](CC(=O)O)C(=O)N[C@@H](C(C)C)C(=O)N(C)[C@@H](Cc2ccccc2)C(=O)N[C@@H](Cc2ccc(O)cc2)C(=O)N(C)CC(=O)N[C@@H](Cc2c[nH]c3ccccc23)C(=O)N[C@@H](Cc2ccccc2)C(=O)N[C@@H](CC(C)C)C(=O)N[C@H](C(=O)NCC(N)=O)CSCC(=O)N[C@@H](Cc2ccccc2)C(=O)N(C)[C@@H](Cc2ccccc2)C(=O)N1C` [Example 3540] (HELM PEPTIDE1{[O=C(C[*:3])[*:2]].F.[meF].[CCCC[C@@H](C(=O)[*:2])N(C)[*:1]].[Sar].D.V.[meF].Y.[Sar].W.F.L.C.G.[am]}$PEPTIDE1,PEPTIDE1,1:R3-14:R3$$$V2.0) were > 30.5 nM and > 74.3 nM.
With `CCCC[C@H]1C(=O)N(C)CC(=O)N[C@@H](CC(=O)O)C(=O)N[C@@H](C(C)C)C(=O)N(C)[C@@H](Cc2ccccc2)C(=O)N[C@@H](Cc2ccc(O)cc2)C(=O)N(C)CC(=O)N[C@@H](Cc2c[nH]c3ccccc23)C(=O)N[C@@H](Cc2ccc(O)cc2)C(=O)N[C@H](C(=O)NCC(N)=O)CSCC(=O)N[C@@H](Cc2ccccc2)C(=O)N(C)[C@@H](Cc2ccccc2)C(=O)N1C` [Example 3054] (HELM PEPTIDE1{[O=C(C[*:3])[*:2]].F.[meF].[CCCC[C@@H](C(=O)[*:2])N(C)[*:1]].[Sar].D.V.[meF].Y.[Sar].W.Y.C.G.[am]}$PEPTIDE1,PEPTIDE1,1:R3-13:R3$$$V2.0), the half-maximal inhibitory concentration (IC50) in assay [1] is > 30.5 nM; in assay [2] (setting [3]) it was > 74.3 nM.
Taken in the same sequence, the figures for `CCCC[C@H]1C(=O)N(C)[C@@H](CCCC)C(=O)N[C@@H](CCCN)C(=O)N[C@H](C(=O)NCC(N)=O)CSCC(=O)N[C@@H](Cc2ccc(O)cc2)C(=O)N2CCC[C@H]2C(=O)N[C@@H](CC(=O)O)C(=O)N2CCC[C@H]2C(=O)N[C@@H](CN)C(=O)N[C@@H](CC(=O)O)C(=O)N2C[C@H](O)C[C@H]2C(=O)N[C@@H](Cc2c[nH]c3ccccc23)C(=O)N[C@@H](CCN)C(=O)N[C@@H](Cc2csc3ccccc23)C(=O)N1C` [Example 1181] ({CH2CO}-YPDP[Dap]D[Hyp]W[Dab][Bta][NMeNle][NMeNle][Orn]CG-NH2; thioether N-14) were 6.76 to 30.3 nM and > 74.3 nM.
On the same counts, the results for `CCCC[C@H]1C(=O)N(C)[C@@H](CCCC)C(=O)N[C@@H](CCCNC(=N)N)C(=O)N[C@H](C(=O)NCC(N)=O)CSCC(=O)N[C@@H](Cc2ccc(O)cc2)C(=O)N(C)[C@@H](C)C(=O)N[C@@H](CC(N)=O)C(=O)N2CCC[C@H]2C(=O)N[C@@H](Cc2cnc[nH]2)C(=O)N[C@@H](CC(C)C)C(=O)N2CCC[C@H]2C(=O)N[C@@H](Cc2c[nH]c3ccccc23)C(=O)N[C@@H](CO)C(=O)N[C@@H](Cc2c[nH]c3ccccc23)C(=O)N1C` [Example 1016] ({CH2CO}-Y[NMeA]NPHLPWSW[NMeNle][NMeNle]RCG-NH2; thioether N-14) are 0.385 to 6.74 nM and 0.158 to 4.71 nM.
On to `CCCC[C@H]1C(=O)N(C)[C@@H](CO)C(=O)N[C@@H](CCCNC(=N)N)C(=O)NC(C(=O)NCC(N)=O)CSCC(=O)N[C@@H](Cc2ccc(O)cc2)C(=O)N(C)[C@@H](C)C(=O)N[C@@H](CC(N)=O)C(=O)N2CCC[C@H]2C(=O)N[C@@H](Cc2cnc[nH]2)C(=O)N[C@@H](CC(C)C)C(=O)N2C[C@H](O)C[C@H]2C(=O)N[C@@H](Cc2c[nH]c3ccccc23)C(=O)N[C@@H](CO)C(=O)N[C@@H](Cc2c[nH]c3ccccc23)C(=O)N1C` (stereo partly shown) [Example 9034], for which the IC50 in assay [1] lay in the range of 6.76 to 30.3 nM; in assay [2] (setting [4]), 4.78 to 72.9 nM.
Turning to `CCCC[C@H]1C(=O)N(C)CC(=O)N[C@@H](CC(=O)O)C(=O)N[C@@H](C(C)C)C(=O)N(C)[C@@H](Cc2ccccc2)C(=O)N[C@@H](Cc2ccc(F)cc2)C(=O)N(C)CC(=O)N[C@@H](Cc2c[nH]c3ccccc23)C(=O)N[C@@H](Cc2ccc(O)cc2)C(=O)N[C@@H](CC(C)C)C(=O)N[C@H](C(=O)NCC(N)=O)CSCC(=O)N[C@@H](Cc2ccccc2)C(=O)N(C)[C@@H](Cc2ccccc2)C(=O)N1C` [Example 3077] ({CH2CO}-F[NMeF][NMeNle][Sar]DV[NMeF][Phe(4-F)][Sar]WYLCG-NH2; thioether N-13), the half-inhibitory concentration (IC50) in assay [1] is > 30.5 nM; in assay [2] (setting [3]), > 74.3 nM.
In the case of `CCCC[C@H]1C(=O)N(C)[C@@H](CCCC)C(=O)N[C@@H](CC(=O)O)C(=O)N[C@H](C(=O)NCC(N)=O)CSCC(=O)N[C@@H](Cc2ccccc2)C(=O)N(C)[C@@H](C)C(=O)N[C@@H](CC(=O)O)C(=O)N2CCC[C@H]2C(=O)N[C@@H](Cc2cnc[nH]2)C(=O)N[C@@H](CCCNC(=N)N)C(=O)N(C)CC(=O)N[C@@H](Cc2c[nH]c3ccccc23)C(=O)N[C@@H](CCCNC(=N)N)C(=O)N[C@@H](Cc2c[nH]c3ccccc23)C(=O)N1C` [Example 1056] ({CH2CO}-F[NMeA]DPHR[Sar]WRW[NMeNle][NMeNle]DCG-NH2; thioether N-14), the IC50 in assay [1] was in the range of 6.76 to 30.3 nM; in assay [2] (setting [3]), 4.78 to 72.9 nM.
Consider `CCCC[C@H]1C(=O)N(C)CC(=O)N[C@@H](CC(=O)O)C(=O)N[C@@H](C(C)C)C(=O)N(C)[C@@H](Cc2ccccc2)C(=O)N[C@@H](Cc2ccc(O)cc2)C(=O)N(C)CC(=O)N[C@@H](Cc2c[nH]c3ccccc23)C(=O)N[C@@H](Cc2ccc(O)cc2)C(=O)N[C@@H](CC(C)C)C(=O)N[C@H](C(=O)NCC(N)=O)CSCC(=O)N[C@@H](Cc2ccccc2)C(=O)N[C@@H](Cc2cccnc2)C(=O)N1C` [Example 3602] ({CH2CO}-F[3Pal][NMeNle][Sar]DV[NMeF]Y[Sar]WYLCG-NH2; thioether N-13), for which the IC50 in assay [1] is 6.76 to 30.3 nM; in assay [2] (setting [4]) it was > 74.3 nM.
